Results reported in US11332459B2 (TEIJIN PHARMA LIMITED, priority 2017, dated 2022).
pIC50: −log10 of the molar value.

molecular target: T1, human TRPC6 (Homo sapiens, UniProt Q9Y210); assay: TRPC6 calcium flux assay (FLIPR, OAG-stimulated calcium influx); format: cell-based; details: HEK293 cells stably transfected with human TRPC6, read-out: hTRPC6 Potency
T1 construct: expressed in transfected cells
T1 sequence (Q9Y210 1-931): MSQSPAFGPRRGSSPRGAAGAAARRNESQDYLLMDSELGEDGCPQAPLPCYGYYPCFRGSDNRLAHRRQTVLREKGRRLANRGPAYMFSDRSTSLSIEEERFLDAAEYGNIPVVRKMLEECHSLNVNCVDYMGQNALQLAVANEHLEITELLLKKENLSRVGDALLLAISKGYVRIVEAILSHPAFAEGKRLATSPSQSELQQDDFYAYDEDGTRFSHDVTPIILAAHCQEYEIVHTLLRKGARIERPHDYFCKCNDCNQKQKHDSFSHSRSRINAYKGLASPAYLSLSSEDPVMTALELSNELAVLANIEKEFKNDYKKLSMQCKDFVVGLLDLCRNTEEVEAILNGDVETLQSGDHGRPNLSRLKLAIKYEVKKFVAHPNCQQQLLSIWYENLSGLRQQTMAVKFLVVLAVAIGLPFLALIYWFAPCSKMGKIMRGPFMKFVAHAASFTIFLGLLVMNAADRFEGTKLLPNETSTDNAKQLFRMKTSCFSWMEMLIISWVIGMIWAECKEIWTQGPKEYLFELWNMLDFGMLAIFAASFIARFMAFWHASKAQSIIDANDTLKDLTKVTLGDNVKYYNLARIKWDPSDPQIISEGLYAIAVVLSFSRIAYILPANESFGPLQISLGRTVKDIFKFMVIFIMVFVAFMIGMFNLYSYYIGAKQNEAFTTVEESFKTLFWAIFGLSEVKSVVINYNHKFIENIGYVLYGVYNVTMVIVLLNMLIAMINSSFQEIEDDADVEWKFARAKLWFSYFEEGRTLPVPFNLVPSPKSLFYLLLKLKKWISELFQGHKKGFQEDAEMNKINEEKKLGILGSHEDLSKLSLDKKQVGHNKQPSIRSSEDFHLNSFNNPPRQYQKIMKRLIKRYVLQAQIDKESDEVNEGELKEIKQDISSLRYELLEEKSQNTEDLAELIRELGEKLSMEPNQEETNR
Method in brief: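 HEK293 cells stably expressing human TRPC6, loaded with calcium dye 90–120 min at RT, then given compound for 25 min before OAG (50 uM final, 0.5% DMSO) in HEPES buffer pH 7.2 with 2 mM CaCl2. Background-subtracted FLIPR peak over 180 s normalized to OAG vs buffer; IC50 from dose plot.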

Compound	pIC50
COc1ccc2nc(N3CCC[C@@H](N)C3)n(Cc3ccc(C#N)cc3)c2c1 [Example 185, (R)-4-((2-(3-aminopiperidin-1-yl)-6-methoxy-1H-benzo[d]imidazol-1-yl)methyl)benzonitrile]	8.45
N#Cc1ccc2nc(N3CC[C@@H](F)[C@H](N)C3)n(Cc3ncc(Cl)cn3)c2c1 [Example 187, 2-((3R,4R)-3-amino-4-fluoropiperidin-1-yl)-1-((5-chloropyrimidin-2-yl)methyl)-1H-benzo[d]imidazole-6-carbonitrile]	8.80
N[C@@H]1CN(c2nc3ccccc3n2Cc2ncc(F)cn2)CC[C@H]1F [Example 188, (3R,4R)-4-fluoro-1-(1-((5-fluoropyrimidin-2-yl)methyl)-1H-benzo[d]imidazol-2-yl)piperidin-3-amine]	7.89
N[C@@H]1CN(c2nc3ccccc3n2Cc2ccc(F)cn2)CC[C@H]1F [Example 189, (3R,4R)-4-fluoro-1-(1-((5-fluoropyridin-2-yl)methyl)-1H-benzo[d]imidazol-2-yl)piperidin-3-amine]	8.45
N#Cc1ccc2nc(N3CC[C@@H](F)[C@H](N)C3)n(Cc3ccc(F)cn3)c2c1 [Example 190, 2-((3R,4R)-3-amino-4-fluoropiperidin-1-yl)-1-((5-fluoropyridin-2-yl)methyl)-1H-benzo[d]imidazole-6-carbonitrile]	8.40
N#Cc1ccc2c(c1)nc(N1CC[C@@H](F)[C@H](N)C1)n2Cc1ccc(F)cn1 [Example 191, 2-((3R,4R)-3-amino-4-fluoropiperidin-1-yl)-1-((5-fluoropyridin-2-yl)methyl)-1H-benzo[d]imidazole-5-carbonitrile]	6.85
N[C@@H]1CN(c2nc3ccccc3n2Cc2ncc(Br)cn2)CC[C@H]1F [Example 192, (3R,4R)-1-(1-((5-bromopyrimidin-2-yl)methyl)-1H-benzo[d]imidazol-2-yl)-4-fluoropiperidin-3-amine]	8.76
N[C@@H]1CN(c2nc3ccccc3n2Cc2ncc(C(F)(F)F)cn2)CC[C@H]1F [Example 193, (3R,4R)-4-fluoro-1-(1-((5-(trifluoromethyl)pyrimidin-2-yl)methyl)-1H-benzo[d]imidazol-2-yl)piperidin-3-amine]	7.31
COc1cnc(Cn2c(N3CC[C@@H](F)[C@H](N)C3)nc3ccccc32)nc1 [Example 194, (3R,4R)-4-fluoro-1-(1-((5-methoxypyrimidin-2-yl)methyl)-1H-benzo[d]imidazol-2-yl)piperidin-3-amine]	7.85
N[C@@H]1CN(c2nc3ccccc3n2Cc2ncc(Cl)cn2)CC[C@H]1F [Example 195, (3R,4R)-1-(1-((5-chloropyrimidin-2-yl)methyl)-1H-benzo[d]imidazol-2-yl)-4-fluoropiperidin-3-amine]	9.18
N#Cc1ccc2nc(N3CC[C@@H](F)[C@H](N)C3)n(Cc3ncc(F)cn3)c2c1 [Example 196, 2-((3R,4R)-3-amino-4-fluoropiperidin-1-yl)-1-((5-fluoropyrimidin-2-yl)methyl)-1H-benzo[d]imidazole-6-carbonitrile]	8.19
N#Cc1ccc2c(c1)nc(N1CC[C@@H](F)[C@H](N)C1)n2Cc1ncc(F)cn1 [Example 197, 2-((3R,4R)-3-amino-4-fluoropiperidin-1-yl)-1-((5-fluoropyrimidin-2-yl)methyl)-1H-benzo[d]imidazole-5-carbonitrile]	6.59
N#Cc1ccc2c(c1)nc(N1CC[C@@H](F)[C@H](N)C1)n2Cc1ncc(Cl)cn1 [Example 198]	7.15
N#Cc1cnc(Cn2c(N3CCC(F)(F)[C@H](N)C3)nc3ccccc32)cn1 [Example 199]	7.55
N#Cc1ccc2nc(N3CC[C@@H](F)[C@H](N)C3)n(Cc3ncc(Br)cn3)c2c1 [Example 200, 2-((3R,4R)-3-amino-4-fluoropiperidin-1-yl)-1-((5-bromopyrimidin-2-yl)methyl)-1H-benzo[d]imidazole-6-carbonitrile]	8.66
N#Cc1ccc2c(c1)nc(N1CC[C@@H](F)[C@H](N)C1)n2Cc1ncc(Br)cn1 [Example 201, 2-((3R,4R)-3-amino-4-fluoropiperidin-1-yl)-1-((5-bromopyrimidin-2-yl)methyl)-1H-benzo[d]imidazole-5-carbonitrile]	7.36
N#Cc1cnc(Cn2c(N3CC[C@@H](F)[C@H](N)C3)nc3ccccc32)cn1 [Example 202, 5-((2-((3R,4R)-3-amino-4-fluoropiperidin-1-yl)-1H-benzo[d]imidazol-1-yl)methyl)pyrazine-2-carbonitrile]	8.67
N#Cc1ccc2nc(N3CC[C@H](F)[C@H](N)C3)n(Cc3ncc(Cl)cn3)c2c1 [Example 203, 2-((3R,4S)-3-amino-4-fluoropiperidin-1-yl)-1-((5-chloropyrimidin-2-yl)methyl)-1H-benzo[d]imidazole-6-carbonitrile]	6.22
N#Cc1ccc2c(c1)nc(N1CC[C@H](F)[C@H](N)C1)n2Cc1ncc(Cl)cn1 [Example 204, 2-((3R,4S)-3-amino-4-fluoropiperidin-1-yl)-1-((5-chloropyrimidin-2-yl)methyl)-1H-benzo[d]imidazole-5-carbonitrile]	8.31
N[C@@H]1CN(c2nc3ccc(F)cc3n2Cc2ncc(Cl)cn2)CC[C@H]1O [Example 205, (3R,4R)-3-amino-1-(1-((5-chloropyrimidin-2-yl)methyl)-6-fluoro-1H-benzo[d]imidazol-2-yl)piperidin-4-ol]	8.52

Second part, the compound after the results:

pIC50	Compound
5.77	N#Cc1ccc(Cn2c(N3CC[C@](F)(CN)C3)nc3ccccc32)cc1 [Example 175, (S)-4-((2-(3-(aminomethyl)-3-fluoropyrrolidin-1-yl)-1H-benzo[d]imidazol-1-yl)methyl)benzonitrile 2,2,2-trifluoroacetate]
5.63	N#Cc1ccc(Cn2c(N3CC[C@@](O)(CN)C3)nc3ccccc32)cc1 [Example 176, (R)-4-((2-(3-(aminomethyl)-3-hydroxypyrrolidin-1-yl)-1H-benzo[d]imidazol-1-yl)methyl)benzonitrile 2,2,2-trifluoroacetate]
5.81	N#Cc1ccc(Cn2c(N3CC[C@](O)(CN)C3)nc3ccccc32)cc1 [Example 177, (S)-4-((2-(3-(aminomethyl)-3-hydroxypyrrolidin-1-yl)-1H-benzo[d]imidazol-1-yl)methyl)benzonitrile 2,2,2-trifluoroacetate]
7.33	N#Cc1ccc(Cn2c(N3CC[C@@H](CN)C3)nc3ccccc32)cc1 [Example 178, (S)-4-((2-(3-(aminomethyl)pyrrolidin-1-yl)-1H-benzo[d]imidazol-1-yl)methyl)benzonitrile]
6.49	N#Cc1ccc(Cn2c(N3CC[C@H](CN)C3)nc3ccccc32)cc1 [Example 179, (R)-4-((2-(3-(aminomethyl)pyrrolidin-1-yl)-1H-benzo[d]imidazol-1-yl)methyl)benzonitrile]
7.83	C[C@H]1CCN(c2nc3ccccc3n2Cc2ccc(C#N)cc2)C[C@H]1N [Example 180, 4-((2-((3S,4S)-3-amino-4-methylpiperidin-1-yl)-1H-benzo[d]imidazol-1-yl)methyl)benzonitrile 2,2,2-trifluoroacetate]
9.04	C[C@@H]1CCN(c2nc3ccccc3n2Cc2ccc(C#N)cc2)C[C@H]1N [Example 181, 4-((2-((3S,4R)-3-amino-4-methylpiperidin-1-yl)-1H-benzo[d]imidazol-1-yl)methyl)benzonitrile 2,2,2-trifluoroacetate]
6.50	C[C@H]1CCN(c2nc3ccccc3n2Cc2ccc(C#N)cc2)C[C@@H]1N [Example 182, 4-((2-((3R,4S)-3-amino-4-methylpiperidin-1-yl)-1H-benzo[d]imidazol-1-yl)methyl)benzonitrile 2,2,2-trifluoroacetate]
6.18	N#Cc1ccc(Cn2c(N3C[C@@H]4C[C@]4(CN)C3)nc3ccccc32)cc1 [Example 183, 4-((2-((1S,5R)-1-(aminomethyl)-3-azabicyclo[3.1.0]hexan-3-yl)-1H-benzo[d]imidazol-1-yl)methyl)benzonitrile]
6.84	N#Cc1ccc(Cn2c(N3C[C@H]4C[C@@]4(CN)C3)nc3ccccc32)cc1 [Example 184, 4-((2-((1R,5S)-1-(aminomethyl)-3-azabicyclo[3.1.0]hexan-3-yl)-1H-benzo[d]imidazol-1-yl)methyl)benzonitrile]
6.56	COc1ccc2c(c1)nc(N1CCC[C@@H](N)C1)n2Cc1ccc(C#N)cc1 [Example 186, (R)-4-((2-(3-aminopiperidin-1-yl)-5-methoxy-1H-benzo[d]imidazol-1-yl)methyl)benzonitrile]
